Reference: PMC10245146, “CNS4 causes subtype‐specific changes in agonist efficacy and reversal potential of permeant cations in NMDA receptors” (Pharmacology Research & Perspectives, 2023)
Several values for one entry are separate records, joined by “and”; a condition that tells them apart may be missing. Equal values may be shown once.

How the values were obtained:
GluN1/2C NMDA receptors = target: T1, GluN1/2C NMDA receptors (UniProt P35439+Q14957); test: TEVC agonist dose-response, Xenopus oocytes expressing 1/2C; format: cell-based
T1 construct: host or cells: Xenopus oocytes (cRNA injection)
Text: (§1) NMDA receptor constructs: cDNA encoding the NMDA receptor1a subunit (GluN1a) was obtained from Dr. Nakanishi (Kyoto, Japan). cDNA encoding the GluN2B (pci_sepGluN2B), originally developed in the Malinow lab,[33] was purchased from Addgene (cat# 23998), Cambridge, MA. cDNA encoding the GluN2C and GluN2D were purchased from GenScript, New Jersey, USA. Mutated GluN1, 2A and 2B cDNA constructs capable of assembling as GluN1/2A/2B triheteromeric (1/2AB) receptors[34] were obtained from Dr. Paoletti (Laboratoire de Neurobiologie, CNRS). These constructs have been previously tested for 1/2AB receptor activity of GluN1/2A receptor‐selective potentiators.[35] […] Plasmids were linearized with NotI (GluN1a and all five GluN1 mutants) or Avrll (GluN2B), or BstB1 (GluN2C and GluN2D) and transcribed in vitro with T7 (GluN1a, GluN1/2A, GluN2B, GluN2C & GluN2D), and SP6 (GluN1 mutants) RNA polymerase using the mMessage mMachine transcription kits (Invitrogen by Thermo Fisher Scientific).
(§2) Stage IV frog oocytes were obtained from Xenopus‐I, (Ann Arbor, MI, USA). NMDA receptor subunit cRNAs were suspended in nuclease free sterile water. GluN1A, GluN2B, GluN2C, GluN2D and GluN1/2A/2B cRNAs were mixed in a ratio of 1:1–3. 50 nL of the final cRNA mixture was microinjected (40–70 ng total) into the oocyte cytoplasm. Oocytes were incubated in ND‐96 solution at 18°C prior to electrophysiological recordings (2–5 days).
(§3) Electrophysiological responses were measured using a standard two‐microelectrode voltage‐clamp workstation (Warner Instruments model OC‐725C) designed to provide a fast clamp of large cells. The recording buffer contained 116 mM NaCl, 2 mM KCl, 0.3 mM BaCl2, and 5 mM HEPES, pH 7.4. Response magnitude was determined in Xenopus oocytes expressing different NMDA receptor subunits (GluN1/2A, 1/2B, 1/2C, 1/2D, and 1/2A/2B) by the steady plateau response elicited by bath application of different agonist concentrations. […] All data points were obtained from the steady state currents unless stated otherwise. Dose–response relationships were fit to an appropriate curve‐fitting equation using GraphPad Prism‐7. Non‐linear regression was used to calculate EC50, IC50, and fold change or percentage maximal response. Curves were fit using the following equations as performed in the previous studies, [37]: Y=100/1+10^LogEC50−XorY=Bottom+Top−Bottom/1+10^LogEC50−X . Statistical significance was determined at the overall alpha level 0.05, using appropriate statistical methods as described in all figure captions. Technical and biological replicates are explicitly mentioned in each figure legend, as n = X (Y). X represents technical repeats (number of traces) and Y represents biological repeats (number of oocytes or HEK293T cells studied). […]

GluN1/2D NMDA receptors = target: T2, GluN1/2D NMDA receptors (UniProt O15399+P35439); test: TEVC agonist dose-response, Xenopus oocytes expressing 1/2D; format: cell-based
T2 construct: host or cells: Xenopus oocytes (cRNA injection)
Text: as §1, §2, §3

T1 sequence (Q14957 20-1233, other chains not shown): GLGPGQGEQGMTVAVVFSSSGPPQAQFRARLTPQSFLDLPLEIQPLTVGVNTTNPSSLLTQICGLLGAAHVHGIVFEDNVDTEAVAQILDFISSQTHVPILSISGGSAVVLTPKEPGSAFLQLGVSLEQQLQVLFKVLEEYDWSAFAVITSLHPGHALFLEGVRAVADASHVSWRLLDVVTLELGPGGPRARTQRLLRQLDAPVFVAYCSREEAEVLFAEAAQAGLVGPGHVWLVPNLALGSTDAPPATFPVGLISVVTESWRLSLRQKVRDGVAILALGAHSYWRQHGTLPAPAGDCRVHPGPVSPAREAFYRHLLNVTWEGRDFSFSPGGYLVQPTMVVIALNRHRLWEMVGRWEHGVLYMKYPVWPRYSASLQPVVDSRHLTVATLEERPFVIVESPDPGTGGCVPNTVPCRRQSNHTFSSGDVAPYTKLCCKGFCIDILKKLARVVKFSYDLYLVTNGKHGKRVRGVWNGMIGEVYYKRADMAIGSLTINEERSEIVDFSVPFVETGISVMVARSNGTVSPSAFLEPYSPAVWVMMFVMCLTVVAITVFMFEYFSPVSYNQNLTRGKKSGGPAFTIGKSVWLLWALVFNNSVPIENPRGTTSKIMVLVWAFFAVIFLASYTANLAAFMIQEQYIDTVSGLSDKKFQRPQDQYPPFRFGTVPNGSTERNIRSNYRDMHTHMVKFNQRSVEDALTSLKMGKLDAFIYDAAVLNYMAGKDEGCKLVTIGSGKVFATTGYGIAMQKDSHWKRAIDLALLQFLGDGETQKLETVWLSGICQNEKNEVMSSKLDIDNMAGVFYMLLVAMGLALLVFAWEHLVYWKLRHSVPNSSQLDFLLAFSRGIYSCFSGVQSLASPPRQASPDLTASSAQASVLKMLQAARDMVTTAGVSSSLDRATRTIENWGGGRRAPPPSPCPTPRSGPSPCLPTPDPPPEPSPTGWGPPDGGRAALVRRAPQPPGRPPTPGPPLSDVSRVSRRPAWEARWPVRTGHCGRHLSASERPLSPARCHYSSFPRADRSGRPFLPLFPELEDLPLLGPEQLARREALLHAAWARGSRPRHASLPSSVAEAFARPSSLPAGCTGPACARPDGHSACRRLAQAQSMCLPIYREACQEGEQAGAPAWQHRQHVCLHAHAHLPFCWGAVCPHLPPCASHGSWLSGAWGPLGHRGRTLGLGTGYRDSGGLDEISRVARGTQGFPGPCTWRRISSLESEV
T2 sequence (O15399 28-1336, other chains not shown): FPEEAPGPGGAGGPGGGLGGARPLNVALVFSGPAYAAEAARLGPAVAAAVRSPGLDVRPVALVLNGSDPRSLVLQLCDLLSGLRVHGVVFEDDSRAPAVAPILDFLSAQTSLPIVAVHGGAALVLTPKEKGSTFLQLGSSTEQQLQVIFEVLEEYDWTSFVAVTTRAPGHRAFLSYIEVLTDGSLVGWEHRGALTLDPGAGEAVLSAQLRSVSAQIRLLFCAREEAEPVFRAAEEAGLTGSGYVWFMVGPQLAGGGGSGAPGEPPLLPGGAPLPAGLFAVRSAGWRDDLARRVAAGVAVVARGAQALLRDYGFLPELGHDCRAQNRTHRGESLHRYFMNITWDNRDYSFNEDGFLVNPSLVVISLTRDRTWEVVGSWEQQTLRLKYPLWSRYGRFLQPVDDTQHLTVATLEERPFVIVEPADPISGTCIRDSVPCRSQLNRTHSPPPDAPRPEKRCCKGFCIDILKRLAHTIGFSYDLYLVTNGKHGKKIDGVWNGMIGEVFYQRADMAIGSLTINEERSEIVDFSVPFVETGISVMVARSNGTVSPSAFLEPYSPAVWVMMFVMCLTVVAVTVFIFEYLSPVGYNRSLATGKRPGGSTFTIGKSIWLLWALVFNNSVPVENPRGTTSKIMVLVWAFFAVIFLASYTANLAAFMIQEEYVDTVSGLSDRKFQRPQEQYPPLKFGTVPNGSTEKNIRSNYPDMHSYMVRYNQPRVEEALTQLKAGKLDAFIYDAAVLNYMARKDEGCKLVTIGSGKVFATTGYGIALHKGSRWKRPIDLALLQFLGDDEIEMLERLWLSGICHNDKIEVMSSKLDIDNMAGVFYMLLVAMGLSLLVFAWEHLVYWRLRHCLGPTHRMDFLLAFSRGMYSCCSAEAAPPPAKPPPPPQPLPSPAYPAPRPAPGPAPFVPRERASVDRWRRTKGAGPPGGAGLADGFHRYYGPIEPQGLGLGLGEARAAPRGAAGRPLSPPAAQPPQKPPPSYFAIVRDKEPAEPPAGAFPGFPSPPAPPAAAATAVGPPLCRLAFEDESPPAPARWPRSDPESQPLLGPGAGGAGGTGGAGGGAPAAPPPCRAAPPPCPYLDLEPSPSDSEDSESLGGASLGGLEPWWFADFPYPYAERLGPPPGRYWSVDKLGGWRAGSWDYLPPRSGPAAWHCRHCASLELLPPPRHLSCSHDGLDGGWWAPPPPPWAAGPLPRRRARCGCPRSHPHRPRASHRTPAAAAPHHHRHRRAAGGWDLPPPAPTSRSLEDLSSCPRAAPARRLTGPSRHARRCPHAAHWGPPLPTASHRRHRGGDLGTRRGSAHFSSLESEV

O=C(NC(=S)N1CCCCC1c1cccnc1)c1ccc(F)cc1 (centres unmarked) [CNS4]
Increase in glycine efficacy with vs without CNS4 (GluN1/2C NMDA receptors; 30 μM CNS4): 1.8 fold
Reduction in glutamate efficacy with vs without CNS4 (GluN1/2C NMDA receptors; 30 μM CNS4): 2.1 fold
Glycine efficacy: relative fold change in current at highest glycine concentration (GluN1/2C NMDA receptors; with 30 μM CNS4, 100 μM glutamate constant, relative to 100 nM glycine, p = .0015): 1.77 ± 0.20 fold
Glutamate efficacy: relative fold change in current at highest glutamate concentration (GluN1/2C NMDA receptors; with 30 μM CNS4, 100 μM glycine constant, relative to 100 nM glutamate, p = .0001): 3.93 ± 0.43 fold
Effect on glutamate efficacy with vs without CNS4 (insignificant) (GluN1/2D NMDA receptors; 30 μM CNS4): 0.8 fold
Increase in glycine efficacy with vs without CNS4 (GluN1/2D NMDA receptors; 30 μM CNS4, 10 μM glycine): 1.89 fold and 1.9 fold
Glycine efficacy: relative fold change in current at highest glycine concentration (GluN1/2D NMDA receptors; with 30 μM CNS4, 10 μM glycine, 100 μM glutamate constant, relative to 100 nM glycine, p = .0014): 2.04 ± 0.19 fold
Glutamate efficacy: relative fold change in current at highest glutamate concentration (GluN1/2D NMDA receptors; with 30 μM CNS4, 100 μM glycine constant, relative to 100 nM glutamate, p = .1735): 6.90 ± 0.62 fold
